# Laboratory results reported in publication PMC7406636, “In vivo and in silico characterization of apocynin in reducing organ oxidative stress: A pharmacokinetic and pharmacodynamic study” (Pharmacology Research & Perspectives, 2020).
# Assay: Time-dependent distribution of apocynin in plasma, urine and tissues after iv bolus injection (HPLC-MS/MS)
# Assay type: in vivo, mouse
# Conditions: plasma, brain and liver samples after iv bolus injection of apocynin, HPLC-MS/MS
# Procedure: All studies were performed in accordance with the protocols approved by the Home Office under the Animals (Scientific Procedures) Act 1986, UK. For the PKPD study, male CD1 mice (Charles River Ltd) at 12 weeks of age with a body weight range between 25 and 30 g were used for the study. Mice were fasted 12 hours before bolus iv injection of apocynin at 5 mg/kg body weight (dosing volume 5 mL/kg) via a lateral tail vein. Control mice were injected with vehicle (solvent of apocynin) at each time points. Four mice/per time points were sacrificed at 0, 1, 2.5, 5, 15, 30, 60 minutes and then at 3, 6, 12, and 24 hours after iv injection of apocynin. Blood samples were collected and centrifuged at 2000 g, 4°C for 10 minutes for plasma collection. Urine samples were collected from bladders. Tissues were harvested for further experiments.
# The detection of apocynin in tissue sample was performed as described previously with some modifications. ^17 In brief, apocynin was detected using an Accela HPLC coupled to a linear ion‐trap tandem mass spectrometry (LTQ‐Orbitrap XL; Thermo‐Fisher Scientific) (HPLC‐MS/MS) in the negative ion mode. Phenacetin (500 ng/mL) was used as an internal standard in every vial. A reversed‐phase 50 × 2.1 mm ID, […], 175 Å pore C18 Hypersil Gold column (Thermo Scientific) was used with injection volume set at 5 µL for the separation of apocynin and phenacetin. Calibration curve used for PK analysis was constructed by spiking apocynin in mouse plasma using eight calibrators ranging from 1 to 10000 ng/mL with great reproducibility and R ^2 ≥ 0.996 for subsequent 5 separate experiments on different days. […] Limit of detection for apocynin was set up at signal to noise ratio ≥ 3, ^18 which is 1 ng/mL in our system. The limitation of quantification was set up at signal to noise ratio ≥ 10, which is 10 ng/mL in our system. Orbitrap component was used for the full scan spectra of apocynin and diapocynin.
smiles,measurement,value
COc1cc(C(C)=O)cc(-c2cc(C(C)=O)cc(OC)c2O)c1O [Diapocynin],diapocynin detection as metabolite in samples,not detected
